Measured values: patent publication US6908930B2, “4-substituted 7-AZA-indolin-2-ones and their use as protein kinase inhibitors” (Sugen, Inc., priority 1999, dated 2005)
Where a name gives a salt, the structure may show the parent alone.

Experiments:
[1] = target: T1, PDGFR (Homo sapiens, UniProt P09619); experiment: Assay for modulation of PDGFR activity (ELISA); format: biochemical; settings: for IC50: read-out: bio PDGFR IC50
T1 construct: expressed in transfected cells; host or cells: NIH3T3
T1 sequence (P09619 33-1106, species assumed): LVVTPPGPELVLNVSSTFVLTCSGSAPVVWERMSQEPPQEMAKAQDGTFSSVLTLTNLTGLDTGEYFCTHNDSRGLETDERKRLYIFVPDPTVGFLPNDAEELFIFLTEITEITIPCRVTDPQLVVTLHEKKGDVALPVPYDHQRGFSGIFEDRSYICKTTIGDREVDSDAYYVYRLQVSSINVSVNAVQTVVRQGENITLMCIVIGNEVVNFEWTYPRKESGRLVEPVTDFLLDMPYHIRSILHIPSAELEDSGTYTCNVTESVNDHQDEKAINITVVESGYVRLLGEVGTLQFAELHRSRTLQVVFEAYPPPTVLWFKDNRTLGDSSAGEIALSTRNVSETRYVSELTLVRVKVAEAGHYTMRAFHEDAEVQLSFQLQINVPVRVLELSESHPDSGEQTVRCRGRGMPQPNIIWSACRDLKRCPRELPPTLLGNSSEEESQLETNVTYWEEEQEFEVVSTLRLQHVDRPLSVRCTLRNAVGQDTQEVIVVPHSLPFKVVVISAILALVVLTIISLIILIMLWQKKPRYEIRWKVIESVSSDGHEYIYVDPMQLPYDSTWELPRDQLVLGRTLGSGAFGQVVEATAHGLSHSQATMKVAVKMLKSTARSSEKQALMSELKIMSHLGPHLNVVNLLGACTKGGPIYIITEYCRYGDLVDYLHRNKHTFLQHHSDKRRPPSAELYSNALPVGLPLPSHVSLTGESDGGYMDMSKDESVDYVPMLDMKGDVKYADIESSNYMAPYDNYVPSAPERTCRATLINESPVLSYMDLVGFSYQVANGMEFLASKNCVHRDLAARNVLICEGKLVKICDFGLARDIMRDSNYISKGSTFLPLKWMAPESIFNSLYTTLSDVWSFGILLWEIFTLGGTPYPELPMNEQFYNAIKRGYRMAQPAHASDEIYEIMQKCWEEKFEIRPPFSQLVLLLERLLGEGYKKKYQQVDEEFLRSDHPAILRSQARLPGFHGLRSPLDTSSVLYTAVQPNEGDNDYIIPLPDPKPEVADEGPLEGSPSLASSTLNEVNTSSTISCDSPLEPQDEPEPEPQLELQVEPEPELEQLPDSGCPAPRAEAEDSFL
Method: Using the following reagents, supplies, and methods, the ability of the compounds of the invention to modulate the in vitro activity of the PDGFR can be readily determined in an enzyme-linked immunosorbent assay (ELISA).
Monoclonal anti-PDGFR antibody (28D4C10) is stored at −20° C. in 50 mL tubes prior to use.
Lysates from PDGFR-β expressing NIH3T3 cells are obtained and stored at −80° C. in 1 mL aliquots. PDGFR-β expression in eukaryotic cells is well known in the art. Lysates are prepared by the following method. Place carrier dishes in ice trays, and after cooling, remove the media and replace with ice cold PBS. Remove the PBS and repeat. […] Take up lysate with a pipettor and add to a 30 mL centrifuge tube on ice. Vortex the tubes for 30-60 seconds and then centrifuge for 10 minutes at 7000 rpm in a J-20 rotor which has been precooled to below 0° C. Recover the supernatants and combine them in a 250 mL tube and place on ice. Perform protein determination to measure the total quantity of protein per mL of solution. Aliquot the lysate into 1 mL fractions and store at −80° C.
Coat Corning 96 well ELISA plates with 0.5 μg per well 28D4C10 antibody in a volume of 100 μl PBS overnight, at 4° C. and remove unbound antibody, 28D4C10, from wells by inverting plate to remove liquid. Wash 1× with distilled H2O by filling wells. Pat the plate on a paper towel to remove excess liquid.
Add 150 μL of Blocking Buffer to each well. Incubate for 30 minutes at room temperature, with shaking and wash plate 3× with deionized water, then once with TBST. Pat plate on a paper towel to remove excess liquid and bubbles
Dilute lysate in PBS (10 mg lysate/100 μL PBS). Add 100 μL of diluted lysate to each well. Shake at room temperature for 60 min. Wash plate 3× with deionized water, then once with TBST. Pat plate on a paper towel to remove excess liquid and bubbles.
Add 80 μL Kinase Buffer to ELISA plate containing captured PDGFR.
Dilute drugs/extracts 1:10 (unless specified otherwise) in TBS+10% DMSO in 96-well polypropylene plates. (i.e., 10 μL compound+90 μL (TBS+10% DMSO)). Add 10 μL diluted drugs/extracts to ELISA plate. […] Incubate for 30 minutes while shaking at room temperature.
After 30 minutes stop reaction with addition of 10 μL of 200 mM EDTA pH 8.0 for 20 mM final in well. Wash 4× with deionized water, twice with TBST.
Incubate 30-45 minutes at room temperature, with shaking. Wash plate 3× with deionized water, then once with TBST. Pat plate on a paper towel to remove excess liquid and bubbles.
Incubate 30 minutes at room temperature with shaking. Wash plate 3× with deionized water, then once with TBST. Pat plate on a paper towel to remove excess liquid and bubbles.
Add 100 μL of ABTS/H2O2 solution to each well. Incubate 10 to 30 minutes while shaking. Remove any bubbles. If necessary stop reaction with the addition of 100 μL of 0.2M HCl per well
Read assay on Dynatech MR7000 ELISA reader.

[2] = target: T2, HER-2 (Homo sapiens, UniProt P04626); experiment: Assay for modulation of HER-2 activity in whole cells (ELISA); format: cell-based; settings: EGFR/HER-2chimera/#T3-C7 cell lines, EGF stimulated; read-out: HER-2 kinase IC50
T2 construct: expressed in mouse 3T3 (clone C7) cells; P00533 (Epidermal growth factor receptor)
T2 sequence (P04626 720-987 limits assumed): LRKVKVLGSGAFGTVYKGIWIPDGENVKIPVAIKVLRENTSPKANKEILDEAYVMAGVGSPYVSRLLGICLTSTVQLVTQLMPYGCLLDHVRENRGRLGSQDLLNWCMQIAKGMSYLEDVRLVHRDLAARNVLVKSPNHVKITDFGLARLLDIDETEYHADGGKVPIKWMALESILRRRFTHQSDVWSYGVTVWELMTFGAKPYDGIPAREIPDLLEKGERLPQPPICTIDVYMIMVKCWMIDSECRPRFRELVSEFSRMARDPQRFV
Method: Using the following reagents, supplies, and method, the ability of compounds of the invention to affect the activity of HER-2 in whole cells in an ELISA format can be assigned.
EGFR/HER-2chimera/#T3-C7 cell lines are used for this assay. Choose dishes having 80-90% confluence for the experiment. Collect cells by trypsinization and centrifuge at 1000 rpm at room temperature for 5 minutes.
Resuspend cells in starve medium and count with trypan blue. Only viability above 90% is acceptable. Seed cells in starve medium at a density of 2,500 cells per well, 90 μL per well, in a 96 well microtiter plate. Incubate seeded cells in 5% CO2 at 37° C. overnight. Start the assay two days after seeding.
Samples are diluted directly into a polypropylene plate containing starve-DMEM (non-sterile is okay). This dilution will be 1:10 or greater, depending on the samples being screened. The same amount of DMSO is put into the control wells. […] are then transferred to the cell plate at a 1:10 dilution (10 μL of sample and media into 90 μL of starve media). The final DMSO concentration will be 1% or lower.
Ten samples are put into wells 2-11 of row A of the NUNC 96 well polypropylene plate. These wells contain straight starve-DMEM. For a 1:10 dilution, one would put 10 μL of drug into 90 μL of media. The rest of the wells (including the controls) will have a DMSO/media mixture. The percentage of DMSO in this mixture is determined by the first dilution factor, in this case 1:10. The DMSO concentration is therefore 10%. An equal amount of drug and media from row A is put into row B, containing DMSO and media. The same amount is then taken out and put into row C. This is repeated for all rows. These are 1:2 dilutions. All wells are then transferred to the cell plate at a 1:10 dilution (10 μL of sample and media into 90 μL of starve-DMEM. The final DMSO concentration will be 1% or lower. […]
After a 2 hour incubation with the drug, add prepared EGF ligand to cells at 50 μL per well, for a final concentration of 50 nM. Positive control wells (8) receive the same amount of EGF. […] Incubate at 37° C. for 10 minutes.
Remove drug, EGF, and DMEM by dumping in sink. Wash cells once with PBS.
Transfer HNTG* to cells, 100 μL per well. Place on ice for 5 minutes. Meanwhile, remove blocking buffer from ELISA plate and wash as described above. With a pipette tip securely fitted to a micropipettor, scrape cells from plate and homogenize cell material by repeatedly aspirating and dispensing the HNTG* lysis buffer. Transfer lysate to a coated, blocked, washed ELISA plate. Alternatively, one may use a Costar transfer cartridge to transfer lysate to the ELISA plate. Incubate, shaking, at room temperature for one hour.
Remove lysate by dumping in sink, then wash as described earlier. Transfer freshly diluted anti-phosphotyrosine (anti-Ptyr) antibody (1:3000 in TEST) to ELISA plate, 100 μL per well. Incubate, shaking, at room temperature, for 30 minutes.
Remove anti-Ptyr antibody by dumping in sink, then wash as described earlier. Transfer freshly diluted BIOSOURCE antibody to ELISA plate, (1:8000 in TEST), 100 μL per well. Incubate, shaking, at room temperature for 30 minutes.
Remove BIOSOURCE antibody by dumping in sink, then wash as described earlier. Transfer freshly prepared ABTS/H2O2 solution to ELISA plate, […]. Incubate 5-10 minutes while shaking. Remove any bubbles and if necessary, stop reaction with the addition of 100 μL of 0.2 M HCl per well.
Read assay on Dynatech MR7000 ELISA reader. Test Filter: […]; Reference Filter: […]. A preferred template for the placement of controls in this experiment is provided below: […]

Row | Compound | IC50 [1] [µM] | IC50 [2] [µM] | effect on the activity of PDGFR (in words) ([1]; hydrochloride salt)
1 | O=C1Nc2ncnc(N3CCCCC3)c2C1=Cc1ccc(C(=O)NCCN2CCOCC2)[nH]1 [Formula 5, 5-(6-OXO-4-PIPERIDIN-1-YL-6,7-DIHYDRO-PYRROLO[2,3-D]PYRIMIDIN-5-YLIDENEMETHYL)-1H-PYRROLE-2-CARBOXYLIC ACID (2-MORPHOLIN-4-YL-ETHYL)-AMIDE] | > 100 | 61.2 | 
2 | Cc1cc(C(=O)NCCN2CCOCC2)[nH]c1C=C1C(=O)Nc2ncnc(N3CCN(C)CC3)c21 [Formula 10, 4-METHYL-5-[4-(4-METHYL-PIPERAZIN-1-YL)-6-OXO-6,7-DIHYDRO-PYRROLO[2,3-D]PYRIMIDIN-5-YLIDENEMETHYL]-1H-PYRROLE-2-CARBOXYLIC ACID (2-MORPHOLIN-4-YL-ETHYL)-AMIDE] | > 100 | > 100 | 
3 | Cc1nc[nH]c1C=C1C(=O)Nc2ncnc(N3CCN(C)CC3)c21 [Formula 11] | 28.1 | > 100 | 
4 | O=C1Nc2ncnc(Nc3ccc4c(ccn4Cc4ccccc4)c3)c2C1=Cc1ccc(C(=O)NCCN2CCOCC2)[nH]1 [Formula 12, 5-[4-(1-BENZYL-1H-INDOL-5-YLAMINO)-6-OXO-6,7-DIHYDRO-PYRROLO[2,3-D]PYRIMIDIN-5-YLIDENEMETHYL]-1H-PYRROLE-2-CARBOXYLIC ACID (2-MORPHOLIN-4-YL-ETHYL)-AMIDE HYDROCHLORIDE] | > 100 | 0.28 | 
5 | O=C1Nc2ncnc(N3CCOCC3)c2C1=Cc1ccc(C(=O)NCCN2CCOCC2)[nH]1 [Formula 13, 5-(4-MORPHOLIN-4-YL-6-OXO-6,7-DIHYDRO-PYRROLO[2,3-D]PYRIMIDIN-5-YLIDENEMETHYL)-1H-PYRROLE-2-CARBOXYLIC ACID (2-MORPHOLIN-4-YL-ETHYL)-AMIDE] | > 100 | > 100 | 
6 | Cc1nc[nH]c1C=C1C(=O)Nc2ncnc(N3CCOCC3)c21 [Formula 14] | > 100 | > 100 | 
7 | C#Cc1cccc(Nc2ncnc3c2C(=Cc2ccc(C(=O)NCCN4CCOCC4)[nH]2)C(=O)N3)c1 [Formula 16, 5-[4-(3-ETHYNYL-PHENYLAMINO)-6-OXO-6,7-DIHYDRO-PYRROLO[2,3-D]PYRIMIDIN-5-YLIDENEMETHYL]-1H-PYRROLE-2-CARBOXYLIC ACID (2-MORPHOLIN-4-YL-ETHYL)-AMIDE HYDROCHLORIDE] | > 20 | 1.02 | 

The next lines start with results.

Row | IC50 [1] [µM] | IC50 [2] [µM] | Compound | effect on the activity of PDGFR (in words) ([1]; hydrochloride salt)
8 | > 100 | 0.272 | Cc1cc(C(=O)NCCN2CCOCC2)[nH]c1C=C1C(=O)Nc2nccc(Nc3ccc(F)c(Cl)c3)c21 [Formula 3, 5-[4-(3-CHLORO-4-FLUORO-PHENYLAMINO)-2-OXO-1,2-DIHYDRO-PYRROLO[2,3-B]PYRIDIN-3-YLIDENEMETHYL]-4-METHYL-1H-PYRROLE-2-CARBOXYLIC ACID (2-MORPHOLIN-4-YL-ETHYL)-AMIDE] | 
9 | > 100 | 0.16 | Cc1cc(C(=O)NCCN2CCOCC2)[nH]c1C=C1C(=O)Nc2ncnc(Nc3ccc(F)c(Cl)c3)c21 [Formula 4, 5-[4-(3-CHLORO-4-FLUORO-PHENYLAMINO)-6-OXO-6,7-DIHYDRO-PYRROLO[2,3-D]PYRIMIDIN-5-YLIDENEMETHYL]-4-METHYL-1H-PYRROLE-2-CARBOXYLIC ACID (2-MORPHOLIN-4-YL-ETHYL)-AMIDE HYDROCHLORIDE] | 
10 | > 100 | 0.13 | Cc1cc(C(=O)NCCN2CCOCC2)[nH]c1C=C1C(=O)Nc2ncnc(Nc3ccc4c(ccn4Cc4ccccc4)c3)c21.Cl [Formula 6, 5-[4-(1-BENZYL-1H-INDOL-5-YLAMINO)-6-OXO-6,7-DIHYDRO-PYRROLO[2,3-D]PYRIMIDIN-5-YLIDENEMETHYL]-4-METHYL-1H-PYRROLE-2-CARBOXYLIC ACID (2-MORPHOLIN-4-YL-ETHYL)-AMIDE HYDROCHLORIDE] | relatively little effect on the activity of PDGFR
11 | 86 | 0.04 | Cc1[nH]c(C=C2C(=O)Nc3ncnc(Nc4ccc(F)c(Cl)c4)c32)c(C)c1CCCN1CCOCC1 [Formula 7, 4-(3-CHLORO-4-FLUORO-PHENYLAMINO)-5-[3,5-DIMETHYL-4-(3-MORPHOLIN-4-YL-PROPYL)-1H-PYRROL-2-YLMETHYLENE]-5,7-DIHYDRO-PYRROLO[2,3-D]PYRIMIDIN-6-ONE HYDROCHLORIDE] | 
12 | 16.4 | 0.1 | Cc1nc[nH]c1C=C1C(=O)Nc2ncnc(Nc3ccc(F)c(Cl)c3)c21 [Formula 8] | 
13 | > 100 | 0.01 | Cc1cc(C)c(C=C2C(=O)Nc3ncnc(Nc4ccc(F)c(Cl)c4)c32)[nH]1 [Formula 9] | 
14 | > 100 | 0.13 | O=C1Nc2ncnc(Nc3ccc(F)c(Cl)c3)c2C1=Cc1ccc(C(=O)NCCN2CCOCC2)[nH]1 [Formula 15, 5-[4-(3-CHLORO-4-FLUORO-PHENYLAMINO)-6-OXO-6,7-DIHYDRO-PYRROLO[2,3-D]PYRIMIDIN-5-YLIDENEMETHYL]-1H-PYRROLE-2-CARBOXYLIC ACID (2-MORPHOLIN-4-YL-ETHYL)-AMIDE] | 
15 | > 20 | 0.1 | C#Cc1cccc(Nc2ncnc3c2C(=Cc2[nH]c(C(=O)NCCN4CCOCC4)cc2C)C(=O)N3)c1 [Formula 17, 5-[4-(3-ETHYNYL-PHENYLAMINO)-6-OXO-6,7-DIHYDRO-PYRROLO[2,3-D]PYRIMIDIN-5-YLIDENEMETHYL]-4-METHYL-1H-PYRROLE-2-CARBOXYLIC ACID (2-MORPHOLIN-4-YL-ETHYL)-AMIDE] | 
16 | 15.3 | 0.03 | C#Cc1cccc(Nc2ncnc3c2C(=Cc2[nH]c(C)c(CCCN4CCOCC4)c2C)C(=O)N3)c1 [Formula 18] | 
17 | > 20 | 0.64 | CC(C)c1cc(CCC(=O)O)c(/C=C2\C(=O)Nc3ncnc(Nc4ccc(F)c(Cl)c4)c32)[nH]1 [Formula 27] | 
